Data taken from US10106556B2, “Heterocyclic compound” (TAKEDA PHARMACEUTICAL COMPANY LIMITED, priority 2015, dated 2018).

Target: T1, His-hMAGL (recombinant polyhistidine tagged human MAGL protein) (Homo sapiens, UniProt Q99685)
T1 construct: made in house; host or cells: E. coli BL21(DE3)
T1 sequence (Q99685 1-303): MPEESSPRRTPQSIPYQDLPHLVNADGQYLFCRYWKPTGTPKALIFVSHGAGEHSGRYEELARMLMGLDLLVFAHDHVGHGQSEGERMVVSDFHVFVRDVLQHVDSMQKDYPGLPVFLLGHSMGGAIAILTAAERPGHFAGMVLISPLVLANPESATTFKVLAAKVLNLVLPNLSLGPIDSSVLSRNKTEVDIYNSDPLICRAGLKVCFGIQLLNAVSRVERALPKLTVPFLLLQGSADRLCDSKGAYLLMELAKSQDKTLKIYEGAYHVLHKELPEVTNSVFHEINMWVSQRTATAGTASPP
Assay: Measurement of MAGL inhibitory activity (arachidonic acid production from 2-arachidonylglycerol, RapidFire-mass spectrometry)
Assay type: biochemical
Conditions: MAGL inhibitory rate at 10 μM test compound; 60 min preincubation with His-hMAGL, 2-arachidonylglycerol substrate, 10 min reaction at room temperature
Outline: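 Recombinant His-tagged human MAGL converted 2-arachidonylglycerol to arachidonic acid. Reactions received acetonitrile with 3 μM arachidonic acid-d8 as internal standard, and product was quantified by RapidFire SPE (C4) with negative-mode SRM mass spectrometry. Percent inhibition was calculated against compound-free and enzyme-free controls.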

inhibition at 10 µM [%]	SMILES
99	CC(Oc1ccc(F)cc1F)C1CCN(C(=O)c2cc3c(cc2F)OCC(=O)N3)CC1 (stereo not shown) [Example 294, 6-((4-(1-(2,4-difluorophenoxy)ethyl)piperidin-1-yl)carbonyl)-7-fluoro-2H-1,4-benzoxazin-3(4H)-one]
99	CC(Oc1ccc(F)cc1Cl)C1CN(C(=O)c2cc3c(cc2F)OCC(=O)N3)C1 (stereo not shown) [Example 297, 6-((3-(1-(2-chloro-4-fluorophenoxy)ethyl)azetidin-1-yl)carbonyl)-7-fluoro-2H-1,4-benzoxazin-3(4H)-one]
99	CC(Oc1ccc(F)cc1F)C1CN(C(=O)c2cc3c(cc2F)OCC(=O)N3)C1 (stereo not shown) [Example 298, 6-((3-(1-(2,4-difluorophenoxy)ethyl)azetidin-1-yl)carbonyl)-7-fluoro-2H-1,4-benzoxazin-3(4H)-one]
100	CC(Oc1ccc2cn[nH]c2c1)C1CN(C(=O)c2cc3c(cc2F)OCC(=O)N3)C1 (stereo not shown) [Example 299, 7-fluoro-6-((3-(1-(1H-indazol-6-yloxy)ethyl)azetidin-1-yl)carbonyl)-2H-1,4-benzoxazin-3(4H)-one]
102	CC(Oc1cccc(F)c1F)C1CN(C(=O)c2cc3c(cc2F)OCC(=O)N3)C1 (stereo not shown) [Example 302, 6-((3-(1-(2,3-difluorophenoxy)ethyl)azetidin-1-yl)carbonyl)-7-fluoro-2H-1,4-benzoxazin-3(4H)-one]
103	CC(Oc1cc(F)ccc1F)C1CN(C(=O)c2cc3c(cc2F)OCC(=O)N3)C1 (stereo not shown) [Example 303, 6-((3-(1-(2,5-difluorophenoxy)ethyl)azetidin-1-yl)carbonyl)-7-fluoro-2H-1,4-benzoxazin-3(4H)-one]
99	CC(Oc1ccc(F)c(F)c1)C1CN(C(=O)c2cc3c(cc2F)OCC(=O)N3)C1 (stereo not shown) [Example 304, 6-((3-(1-(3,4-difluorophenoxy)ethyl)azetidin-1-yl)carbonyl)-7-fluoro-2H-1,4-benzoxazin-3(4H)-one]
100	CC(Oc1cc(F)cc(F)c1)C1CN(C(=O)c2cc3c(cc2F)OCC(=O)N3)C1 (stereo not shown) [Example 305, 6-((3-(1-(3,5-difluorophenoxy)ethyl)azetidin-1-yl)carbonyl)-7-fluoro-2H-1,4-benzoxazin-3(4H)-one]
100	CC(Oc1c(F)cccc1F)C1CN(C(=O)c2cc3c(cc2F)OCC(=O)N3)C1 (stereo not shown) [Example 306, 6-((3-(1-(2,6-difluorophenoxy)ethyl)azetidin-1-yl)carbonyl)-7-fluoro-2H-1,4-benzoxazin-3(4H)-one]
104	CC(C)(Oc1ccc(F)cc1F)C1CN(C(=O)c2cc3c(cc2F)OCC(=O)N3)C1 [Example 308, 6-((3-(2-(2,4-difluorophenoxy)propan-2-yl)azetidin-1-yl)carbonyl)-7-fluoro-2H-1,4-benzoxazin-3 (4H)-one]
98	COCC(Oc1ccc(Cl)cc1F)C1CN(C(=O)c2cc3c(cc2F)OCC(=O)N3)C1 (stereo not shown) [Example 309, 6-((3-(1-(4-chloro-2-fluorophenoxy)-2-methoxyethyl)azetidin-1-yl)carbonyl)-7-fluoro-2H-1,4-benzoxazin-3(4H)-one]
101	O=C1COc2cc(F)c(C(=O)N3CC(OCc4ccc(F)cc4Cl)C3)cc2N1 [Example 322, 6-((3-((2-chloro-4-fluorobenzyl)oxy)azetidin-1-yl)carbonyl)-7-fluoro-2H-1,4-benzoxazin-3(4H)-one]
99	O=C1COc2ccc(C(=O)N3CC(OCc4ccc(F)cc4Cl)C3)cc2N1 [Example 323, 6-((3-((2-chloro-4-fluorobenzyl)oxy)azetidin-1-yl)carbonyl)-2H-1,4-benzoxazin-3(4H)-one]
102	O=C1COc2cc(F)c(C(=O)N3CC(OCc4ccc(Cl)cc4Cl)C3)cc2N1 [Example 324, 6-((3-((2,4-dichlorobenyzl)oxy)azetidin-1-yl)carbonyl)-7-fluoro-2H-1,4-benzoxazin-3(4H)-one]
101	O=C1COc2ccc(C(=O)N3CC(OCc4ccc(Cl)cc4Cl)C3)cc2N1 [Example 325, 6-((3-((2,4-dichlorobenzyl)oxy)azetidin-1-yl)carbonyl)-2H-1,4-benzoxazin-3(4H)-one]
98	O=C1COc2ccc(C(=O)N3CC(OCc4ccccc4)C3)cc2N1 [Example 326, 6-((3-(benzyloxy)azetidin-1-yl)carbonyl)-2H-1,4-benzoxazin-3(4H)-one]
99	O=C1COc2cc(F)c(C(=O)N3CC(OCc4ccccc4)C3)cc2N1 [Example 327, 6-((3-(benzyloxy)azetidin-1-yl)carbonyl)-7-fluoro-2H-1,4-benzoxazin-3(4H)-one]
101	COc1cccc(COC2CN(C(=O)c3cc4c(cc3F)OCC(=O)N4)C2)c1 [Example 328, 7-fluoro-6-((3-((3-methoxybenzyl)oxy)azetidin-1-yl)carbonyl)-2H-1,4-benzoxazin-3(4H)-one]
100	Cc1cccc(COC2CN(C(=O)c3cc4c(cc3F)OCC(=O)N4)C2)c1 [Example 329, 7-fluoro-6-((3-((3-methylbenzyl)oxy)azetidin-1-yl)carbonyl)-2H-1,4-benzoxazin-3(4H)-one]
102	O=C1COc2cc(F)c(C(=O)N3CC(OCc4ccccc4F)C3)cc2N1 [Example 330, 7-fluoro-6-((3-((2-fluorobenzyl)oxy)azetidin-1-yl)carbonyl)-2H-1,4-benzoxazin-3(4H)-one]
100	O=C1COc2cc(F)c(C(=O)N3CC(OCc4cccc(F)c4)C3)cc2N1 [Example 331, 7-fluoro-6-((3-((3-fluorobenzyl)oxy)azetidin-1-yl)carbonyl)-2H-1,4-benzoxazin-3(4H)-one]
98	O=C1COc2cc(F)c(C(=O)N3CC(OCc4ccc(F)cc4)C3)cc2N1 [Example 332, 7-fluoro-6-((3-((4-fluorobenzyl)oxy)azetidin-1-yl)carbonyl)-2H-1,4-benzoxazin-3(4H)-one]

Same assay, conditions: MAGL inhibitory rate at 10 μM test compound; 60 min preincubation with His-hMAGL, 2-arachidonylglycerol substrate, 10 min reaction at room temperature; 10 µM

% inhibition (10 μM) [%]	SMILES
101	CC(Oc1ccc(F)cc1Cl)C1CCN(C(=O)c2cc3c(cc2F)OCC(=O)N3)CC1 (stereo not shown) [Example 295, 6-((4-(1-(2-chloro-4-fluorophenoxy)ethyl)piperidin-1-yl)carbonyl)-7-fluoro-2H-1,4-benzoxazin-3(4H)-one]
101	CC(Oc1ccc(F)cc1Cl)C1CCN(C(=O)c2cc3c(cc2F)OCC(=O)N3)CC1 (stereo not shown) [Example 296, 6-((4-(1-(2-chloro-4-fluorophenoxy)ethyl)piperidin-1-yl)carbonyl)-7-fluoro-2H-1,4-benzoxazin-3(4H)-one]
102	CC(Oc1ccc(F)cc1F)C1CN(C(=O)c2cc3c(cc2F)OCC(=O)N3)C1 (stereo not shown) [Example 300, 6-((3-(1-(2,4-difluorophenoxy)ethyl)azetidin-1-yl)carbonyl)-7-fluoro-2H-1,4-benzoxazin-3(4H)-one]
99	CC(Oc1ccc(F)cc1F)C1CN(C(=O)c2cc3c(cc2F)OCC(=O)N3)C1 (stereo not shown) [Example 301, 6-((3-(1-(2,4-difluorophenoxy)ethyl)azetidin-1-yl)carbonyl)-7-fluoro-2H-1,4-benzoxazin-3(4H)-one]
99	CC(Oc1cccc(F)c1F)C1CN(C(=O)c2cc3c(cc2F)OCC(=O)N3)C1 (stereo not shown) [Example 310, 6-((3-(1-(2,3-difluorophenoxy)ethyl)azetidin-1-yl)carbonyl)-7-fluoro-2H-1,4-benzoxazin-3(4H)-one]
103	CC(Oc1cccc(F)c1F)C1CN(C(=O)c2cc3c(cc2F)OCC(=O)N3)C1 (stereo not shown) [Example 311, 6-((3-(1-(2,3-difluorophenoxy)ethyl)azetidin-1-yl)carbonyl)-7-fluoro-2H-1,4-benzoxazin-3(4H)-one]
101	CC(Oc1ccc(F)c(F)c1)C1CN(C(=O)c2cc3c(cc2F)OCC(=O)N3)C1 (stereo not shown) [Example 312, 6-((3-(1-(3,4-difluorophenoxy)ethyl)azetidin-1-yl)carbonyl)-7-fluoro-2H-1,4-benzoxazin-3(4H)-one]
103	CC(Oc1ccc(F)c(F)c1)C1CN(C(=O)c2cc3c(cc2F)OCC(=O)N3)C1 (stereo not shown) [Example 313, 6-((3-(1-(3,4-difluorophenoxy)ethyl)azetidin-1-yl)carbonyl)-7-fluoro-2H-1,4-benzoxazin-3(4H)-one]
98	CC(Oc1cc(F)cc(F)c1)C1CN(C(=O)c2cc3c(cc2F)OCC(=O)N3)C1 (stereo not shown) [Example 314, 6-((3-(1-(3,5-difluorophenoxy)ethyl)azetidin-1-yl)carbonyl)-7-fluoro-2H-1,4-benzoxazin-3(4H)-one]
102	CC(Oc1cc(F)cc(F)c1)C1CN(C(=O)c2cc3c(cc2F)OCC(=O)N3)C1 (stereo not shown) [Example 315, 6-((3-(1-(3,5-difluorophenoxy)ethyl)azetidin-1-yl)carbonyl)-7-fluoro-2H-1,4-benzoxazin-3(4H)-one]
101	CC(Oc1cc(F)ccc1F)C1CN(C(=O)c2cc3c(cc2F)OCC(=O)N3)C1 (stereo not shown) [Example 319, 6-((3-(1-(2,5-difluorophenoxy)ethyl)azetidin-1-yl)carbonyl)-7-fluoro-2H-1,4-benzoxazin-3(4H)-one]
100	CC(Oc1cc(F)ccc1F)C1CN(C(=O)c2cc3c(cc2F)OCC(=O)N3)C1 (stereo not shown) [Example 320, 6-((3-(1-(2,5-difluorophenoxy)ethyl)azetidin-1-yl)carbonyl)-7-fluoro-2H-1,4-benzoxazin-3(4H)-one]
